Source: US20230414771A1, “PREPARATION AND USE OF IMMUNOSTIMULATORY CONJUGATED COMPLEXES FOR TARGETED DELIVERY AND ACTIVATION” (YAFEI SHANGHAI BIOLOGY MEDICINE SCIENCE & TECHNOLOGY CO., …, priority 2020, published 2023)
Where a SMILES comes first, the peptide text is derived from it. The star is where a group is joined. Doxorubicin(3'-N) = COc1cccc2c1C(=O)c1c(O)c3c(c(O)c1C2=O)C[C@@](O)(C(=O)CO)C[C@@H]3O[C@H]1C[C@H](N*)[C@H](O)[C@H](C)O1; Hexanoyl(6-maleimido) = O=C1C=CC(=O)N1CCCCCC(=O)*

Tests used:
[1] = system: acidified human breast cancer (MDA-MB435) tumor tissue homogenate; test: Activation efficiency of S-C-A linkers in tumor tissue homogenate, HPLC; format: biochemical; details: Table 2-1; C is AAN; 1 mg/ml, homogenate pH 6.0, 37° C.
Method: When C is AAN, the activation of the different S-C-A linkers and the control linker is evaluated in an activation assay. They were dissolved and diluted tenfold using S-C-A conjugates to a concentration of 0.1 mM/ml. The sample compounds were added at a concentration of 1 mg/ml to 100 μg of acidified human breast cancer (MDA—MB435) tumor tissue homogenate (pH 6.0) at 37° C. The enzyme in the tumor tissue homogenate was released and detected by HPLC to compare the efficiency of activation of the linker by the tumor tissue.
The effect of the D-type tripeptide on the activation efficiency was examined in comparison to the native peptide sequence linker cleaved by Legumain, S1 in MI-S is —CH2CH2—CONH—, S2: 2 peg.

[2] = system: CT26 tumor; test: CT26 tumor immune model, tumor suppression and CD8+ T cell analysis; format: in vivo, BALB/c mice
Method: • 1) CT26 cells were purchased from ATCC. […] The corresponding 5×10^6 cells were injected subcutaneously into the back of […] mice. After the size of tumors reached at least 100 mm^3, the mice were randomized into groups. Treatment was then initiated, with the day of treatment initiation being Day 1. • 3) The course of treatment. The drug was administered at an equimolar dose of 36 umol/kg. The control group was given normal saline. The drug was administered once a week for three week. • 4) Tumor CD8+ T cell analysis. Tumor tissue was homogenized, individual cells in the tumor were filtered, dissociated and washed twice with buffer, and then incubated with leukocyte common antigen CD45-PE and CD8-FITC-labeled antibodies for 1 hour at room temperature. The cells were washed twice with phosphate buffered saline containing 1% fetal bovine serum, and then the proportion of T lymphocyte antigen (CD8)-positive cells in leukocyte common antigen (CD45)-positive cells was analyzed by flow cytometry. An increase in the ratio indicates an increase in T lymphocytes and therefore an improvement in the immunity of the animal to the tumor. • 5) The grouping and test results are shown in Table 7.

[3] = system: Human ovarian carcinoma SK-OV-3 tumor tissue homogenate; test: Activation in SK-OV-3 tumor tissue homogenate; format: biochemical; details: SK-OV-3 homogenate pH 6.0, 37° C., 1 mg/ml
Method: (§1) In the experiments of the present disclosure, 1 mg/ml of the sample compound was added to 100 μg of acidified tumor tissue homogenate (pH 6.0) at 37° C. The enzyme in the tumor tissue homogenate can cause the release of doxorubicin, and the reduction of compound and the increase of doxorubicin could be detected by HPLC to compare the activation efficiency of the drug in the tumor tissue.

[4] = Water solubility test (observation and HPLC); format: physicochemical; details: thermodynamic from solid
Method: The compounds prepared in accordance with the examples of the disclosure and the reference compounds C1, C2, C3 and C4 were lyophilized (−70° C.).

[5] = system: Human pancreatic carcinoma Panc-1 tumor tissue homogenate; test: Activation in Panc-1 tumor tissue homogenate; format: biochemical; details: Panc-1 homogenate pH 6.0, 37° C., 1 mg/ml
Method: as §1

[6] = system: Human prostate cancer PC-3 tumor tissue homogenate; test: Activation in PC-3 tumor tissue homogenate; format: biochemical; details: PC-3 homogenate pH 6.0, 37° C., 1 mg/ml
Method: as §1

[7] = system: Human colon cancer HT-29 tumor tissue homogenate; test: Activation in HT-29 tumor tissue homogenate; format: biochemical; details: HT-29 homogenate pH 6.0, 37° C., 1 mg/ml
Method: as §1

[8] = system: M2 macrophages; test: MTT cytotoxicity on M2 macrophages; format: cell-based, C57BL/6 mice; details: 48 hours, relative to C3
Method: The bilateral femur and tibiae of two C57BL/6 mice were taken out under aseptic conditions, and that metaphysis was cut off in a super-clean table. the marrow cavity was gently washed with serum-free MEM culture solution by a 5 mL sterile syringe for 4 times, and all cell suspensions were collect; Centrifuge at 1000 r/min for 10 min, discard the supernatant to obtain the cell precipitate, resuspend with an appropriate volume of serum-free MEM culture medium, repeatedly blow and homogenize, filter with a 40 uM filter screen, add 3 times the volume of erythrocyte lysate, and lyse on ice for 10 min; Centrifuge at 1000 r/min for 5 min, discard the supernatant to obtain the cell precipitate, wash with serum-free MEM culture medium for 2 times, and collect the cell precipitate; Resuspend the cells with MEM complete culture medium containing 10% FBS and 1% PS in volume fraction, and count the cells for subsequent differentiation; 100 uL, 20000 cells/well were inoculated into 96-well cell culture plate, 100 ng M-CSF was added into the culture medium for differentiation of M2 macrophages, and the cells were statically cultured at 37° C. in 5% C02 incubator, and induced to differentiate for 7 days, and the cell morphology was observed. […]
The cell survival rate and the 50% inhibitory concentration of the drug on the cells were calculated. […]

[9] = drug 36 umol/kg once a week for three weeks, PD-1 antibody 5 mg/kg

| SMILES | Activation efficiency (%) [1] [%] | CD8:CD45 (%) ([2]; CD8-positive among CD45-positive cells in tumor, flow cytometry) | therapeutic effect combined with PD-1, in words ([2]; combined with PD-1 versus single drug) | Tumor inhibition rate (%) Day 28 [2, 9] [%] | Tumor volume (mm^3) Day 28 [2, 9] [mm^3] | Compound activation ratios (%) [3] [%] | solubility [4] [µg/mL] | Compound activation ratios (%) [5] [%] | Compound activation ratios (%) [6] [%] | Compound activation ratios (%) [7] [%] | cytotoxicity against M2 macrophages (FIG. 6) [8] |
| --- | --- | --- | --- | --- | --- | --- | --- | --- | --- | --- | --- |
| COc1cccc2c1C(=O)c1c(O)c3c(c(O)c1C2=O)C[C@@](O)(C(=O)CO)C[C@@H]3O[C@H]1C[C@H](NC(=O)[C@H](CC(C)C)NC(=O)[C@H](CC(N)=O)NC(=O)[C@H](C)NC(=O)[C@H](C)NC(=O)CCCCCN2C(=O)C=CC2=O)[C@H](O)[C@H](C)O1 [EMC-AANL-DOX] ({Hexanoyl(6-maleimido)}-AANL-{Doxorubicin(3'-N)}) | 56.4 | 8.9 | improved compared with single drug | 66.9 | 624.5 ± 313.6 | 58.4 | < 5000 | 54.8 | 37.3 | 49.4 |  |
| COc1cccc2c1C(=O)c1c(O)c3c(c(O)c1C2=O)C[C@@](O)(C(=O)CO)C[C@@H]3O[C@H]1C[C@H](NC(=O)[C@H](CC(C)C)NC(=O)[C@H](CC(N)=O)NC(=O)[C@H](C)NC(=O)[C@H](C)NC(=O)CCOCCOCCNC(=O)CCN2C(=O)C=CC2=O)[C@H](O)[C@H](C)O1 [QHL-087-DOX] |  |  |  |  |  |  |  |  |  |  | significantly improved cytotoxicity against M2 macrophages |
